Source: PMC8802549 (The Journal of Immunology Author Choice, 2022)
Like-named read-outs stand apart in the source and are kept apart here.

What was measured:
[1] = test system: BoLA-1*023:01 class I molecule; test: Peptide–MHC class I binding assay (ELISA of p-MHC monomer folding); parameters: species or system bovine; conditions: for Peptide binding to BoLA-1*023:01 (folding in ELISA), in words: Fig. 1B, 10-mer and peptides with 1 or 2 aa deletions at N- or C-terminal end; for Kd: 25 nM BoLA-1*023:01, 150 nM bovine β2m, peptide 0–40 μM, 48 h 18°C, one-site specific binding fit, representative experiment, duplicates
Experimental: Folding of p-MHC class I complexes was assessed with an ELISA assay as described by Svitek et al. ([34]). The BoLA-1*023:01 molecule (25 nM) and bovine β2m molecule (150 nM) were incubated in a 96-well plate with Tp9_67–75 (Muguga, G1 to A9, or V2 to V9) peptides (Mimotopes, purity: 95%) at various peptide concentrations ranging from 0 to 40 μM. After an incubation of 48 h at 18°C, the complexes were transferred to another 96-well plate precoated with streptavidin (catalog number [cat #] 436014; Nunc), which captures biotinylated heavy chains, and incubated for 3 h at 4°C. After washing, the W6/32 mAb (cat # SC-32235; Santa Cruz Biotechnology, TX), which binds to a monomorphic epitope on β2m, but only when it is incorporated in p-MHC class I complexes, was added for 1 h at 4°C. After washing, anti-mouse IgG coupled to peroxidase (cat # A9917-1ML; Sigma-Aldrich) was added to the plate followed by incubation for an hour at room temperature and further rounds of washes. Colorimetric change was performed by adding the TMB Plus2 “Ready to Use” Substrate (cat # 4395H; Kem En Tec) for 10 min at room temperature. The reaction was stopped by adding H2SO4 (0.3 M), and OD was measured using a Synergy HT ELISA plate reader (BioTek) at 450 nm. Kd values were determined by performing a nonlinear regression curve fit (One-Site Specific Binding) with GraphPad Prism (version 6).
Statistical analyses of data were performed with GraphPad Prism version 6 software. To determine the Kd, binding, and half-life values, we performed a nonlinear regression curve fit (One-Site, Specific binding). R^2 values and confidence intervals were generated to assess curve fit and differences between Kd values. When comparing data generated with the ELISPOT assay with a single peptide concentration, we performed a one-way ANOVA with Dunnett’s correction for multiple comparison. When comparing data generated with the ELISPOT assay with varying peptide concentrations, we performed a two-way ANOVA with Dunnett’s correction for multiple comparison (main column effect). All datasets were compared with the data obtained with the Tp9_67–75 Muguga epitope. All experiments were repeated twice using duplicate measurements.

CTL 495 = test: IFN-γ ELISPOT with Tp9-specific CTL line 495; type: cell-based, cattle; conditions: for IFN-γ ELISPOT stimulation of CTL 495, in words: Supplemental Fig. 1, minimal epitope peptides, relatively high peptide concentration; for IFN-γ ELISPOT response of CTL 495 vs Tp9_67–75 Muguga, in words: Fig. 3A, alanine/glycine-substituted peptides, 2.5 × 10^4 CD8+ cells/well, 20 h 37°C, reduced = SFU >15% lower than Tp9_67–75
Text: (§1) Autologous T. parva Muguga-infected lymphocyte (TpM) lines from animals BF092, 4003, and 495 and TpM-specific bulk CTLs lines after immunization by ITM were established as previously described ([37]). In brief, PBMCs harvested from immunized animals were stimulated at least three times, at weekly intervals, by coculturing with irradiated autologous T. parva–infected cells (TpMs) at a ratio of 5–10:1 (TpMs:PBMC) in RPMI media containing 15% T cell growth factor ([38]). Cells were maintained in RPMI 1640 culture medium (Sigma-Aldrich) containing 10% heat-inactivated FCS (Life Technologies), 2 mM L-glutamine (Sigma-Aldrich), 1 mg/ml gentamicin (Carl-Roth), 100 UI/ml penicillin (Sigma-Aldrich), 100 mg/ml streptomycin (Sigma-Aldrich), 2-ME (BDH, final concentration: 50 μM ([39]); a detailed description of our protocols can be found in Ref. [40]). The CTL lines from 4003 (A14 homozygous) and 495 (A10/A14 heterozygous) were propagated by stimulating them with cesium-137–irradiated autologous TpM (the use of radioisotope and irradiator was per institutional radiation safety guidelines; the length of exposure for inhibiting replication was empirically determined and found to be optimal with an exposure of 30 min at a distance of 10 cm of the cesium-137 source at 265 rad/min using a top linear irradiator [Conservatome, Lyon, France]), at a ratio of 1:5–10 (CTL:TpMs), and supplementing the media with 2 ng/ml recombinant human IL-2 (Sigma) or 15% T cell growth factor. Cells were incubated at 37°C in a 5% CO2 humidified atmosphere. Both CTLs recognize the Tp9 Ag. CTL clone 8 was derived from the CTL 495 by limiting dilution.
IFN-γ ELISPOT assay was performed as previously described ([34]). In brief, a monoclonal anti-bovine IFN-γ Ab (cat # MCA1783; Serotec, Oxford, U.K.) was incubated overnight at 4°C on ELISPOT plates (cat # MAIPN4550; Millipore, Billerica, MA, USA) and then blocked with RPMI containing 10% heat-inactivated FCS for 2 h at 37°C. Peptides (purity: 95%; Mimotopes) were added at concentrations ranging from 0.1 to 1 μM and CD8^+ cells at 2.5 × 10^4 cells/well. The plates were incubated at 37°C for 20 h. Release of IFN-γ was monitored with primary rabbit polyclonal anti-bovine IFN-γ Ab (Sigma-Aldrich, St. Louis, MO, USA) and secondary alkaline phosphatase–conjugated monoclonal anti-rabbit IgG (cat # A2556; Sigma-Aldrich, St. Louis, MO). Development of plates was done by addition of the substrate solution Sigma Fast (BCIP/NBT, cat # B5655-25TAB; Sigma-Aldrich, St. Louis, MO). Plates were read using an automated ELISPOT reader (AID Classic ELISpot Reader).
Statistical analyses of data were performed with GraphPad Prism version 6 software. To determine the Kd, binding, and half-life values, we performed a nonlinear regression curve fit (One-Site, Specific binding). […]

[2] = molecular target: BoLA-1*023:01 MHC class I molecule with bovine β2-microglobulin (bovine) (UniProt P01888); test: ELISA
CTL 4003 = test: IFN-γ ELISPOT with Tp9-specific CTL line 4003; type: cell-based, cattle; conditions: Fig. 3A; alanine/glycine-substituted peptides; 2.5 × 10^4 CD8+ cells/well, 20 h 37°C; reduced = SFU >15% lower than Tp9_67–75
Text: as §1, with “Cells were maintained in RPMI 1640 culture medium (Sigma-Aldrich) containing 10% heat-inactivated FCS (Life Technologies), 2 mM L-glutamine (Sigma-Aldrich), 1 mg/ml gentamicin (Carl-Roth), 100 UI/ml penicillin (Sigma-Aldrich), 100 mg/ml streptomycin (Sigma-Aldrich), 2-ME (BDH, final concentration: 50 μM ([39]); a detailed description of our protocols can be found in Ref. [40]).” left out, “Cells were incubated at 37°C in a 5% CO2 humidified atmosphere. Both CTLs recognize the Tp9 Ag. CTL clone 8 was derived from the CTL 495 by limiting dilution.” left out
IFN-γ ELISPOT assay was performed as previously described ([34]). […] Release of IFN-γ was monitored with primary rabbit polyclonal anti-bovine IFN-γ Ab (Sigma-Aldrich, St. Louis, MO, USA) and secondary alkaline phosphatase–conjugated monoclonal anti-rabbit IgG (cat # A2556; Sigma-Aldrich, St. Louis, MO). […]

[3] = molecular target: BoLA-1*023:01 MHC class I molecule with bovine β2-microglobulin (bovine) (UniProt P01888); test: ELISA; remark: listed apart in the source

For “AKFPGMKK [Tp9_67–74, 8-mer Tp9 peptide with 2 aa deleted at the C-terminal end]”, the “Peptide binding to BoLA-1*023:01 (folding in ELISA), in words” value [1] was “showed binding” and the “IFN-γ ELISPOT stimulation of CTL 495, in words” value (CTL 495) was “capacity to stimulate”.
For “AKFPGMKKSK [Tp9_67–76, 10-mer peptide from the T. parva (Muguga) Tp9 Ag]”, the “Peptide binding to BoLA-1*023:01 (folding in ELISA), in words” value [1] was “showed binding” and the “IFN-γ ELISPOT stimulation of CTL 495, in words” value (CTL 495) was “capacity to stimulate”.
BoLA-1*023:01 control peptide showed a Kd [2] of 6.94 nM.
In the case of “FPGMKKSK [Tp9_69–76, Tp9 peptide with 2 aa deleted at the N-terminal end]”, the “Peptide binding to BoLA-1*023:01 (folding in ELISA), in words” value [1] is reported as “no folding can be measured”.
For “KFPGMKKSK [Tp9_68–76, Tp9 peptide with 1 aa deleted at the N-terminal end]”, the “Peptide binding to BoLA-1*023:01 (folding in ELISA), in words” value [1] was “no folding can be measured”.
Work on “Tp9A2 peptide (Tp9_(67–75) Muguga with alanine at position 2)” yielded a Kd [2] of 192 nM.
In the case of “Tp9A3 peptide (Tp9_(67–75) Muguga with alanine at position 3)”, the Kd [2] is reported as 86.2 nM.
With “Tp9A4 peptide (Tp9_(67–75) Muguga with alanine at position 4)” the Kd [2] was 28 nM.
“Tp9A5 peptide (Tp9_(67–75) Muguga with alanine at position 5)” showed a Kd [2] of 23 nM.
In the case of “Tp9A6 peptide (Tp9_(67–75) Muguga with alanine at position 6)”, the Kd [2] is reported as 16.6 nM.
“Tp9A7 peptide (Tp9_(67–75) Muguga with alanine at position 7)” was tested, and the Kd [2] was 10.1 nM.
In the case of “Tp9A8 peptide (Tp9_(67–75) Muguga with alanine at position 8)”, the Kd [2] is reported as 2.58 nM.
“Tp9A9 peptide (Tp9_(67–75) Muguga with alanine at position 9)” gave a Kd [2] of 15 nM.
For “Tp9A9: Tp9_67–75 Muguga with alanine substitution at position 9 (AKFPGMKKA)”, the Kd ([1]; Fig. 2 lower panel, alanine-substituted Tp9_67–75) was 15 nM, the “IFN-γ ELISPOT response of CTL 4003 vs Tp9_67–75 Muguga, in words” value (CTL 4003) was “enhanced stimulation” and the “IFN-γ ELISPOT response of CTL 495 vs Tp9_67–75 Muguga, in words” value (CTL 495) was “enhanced stimulation”.
With “Tp9G1 peptide (Tp9_(67–75) Muguga with glycine at position 1)” the Kd [2] was 13.4 nM.
For “Tp9G1: Tp9_67–75 Muguga with glycine at position 1 (GKFPGMKKS)”, the Kd ([1]; Fig. 2 upper panel, alanine/glycine-substituted Tp9_67–75) was 13.4 nM, the “IFN-γ ELISPOT response of CTL 4003 vs Tp9_67–75 Muguga, in words” value (CTL 4003) was “enhanced stimulation” and the “IFN-γ ELISPOT response of CTL 495 vs Tp9_67–75 Muguga, in words” value (CTL 495) was “enhanced stimulation”.
Tp9_(67–75) Muguga epitope peptide gave a Kd [3] of 29.7 nM and a Kd [2] of 13.9 nM.
